# Measured values: PubChem BioAssay AID2060909 (Molecular Pharmacology Branch, DTP, NCI, 2025)
# Test system: 362531-283-R-J2-PDC complex spheroid viability
# Assay: Anticancer human tumor 362531-283-R-J2-PDC patient-derived colon adenocarcinoma cell line growth inhibition [RAS]
# Settings: for viability, T/C: stronger effect = lower value
# Summary of the method: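 Agents were tested in combination matrices in half-log decrements from a top concentration at or near clinical Cmax (10 microM if undetermined). Targets were multi-cell spheroids of tumour lines plus HUVEC and MSC stromal cells.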
# [1] = curve of first compound, second compound 0.0316 µM
# [2] = curve of first compound, second compound 0.1 µM
# [3] = curve of first compound, second compound 0.316 µM
# [4] = curve of first compound, second compound 1 µM
# [5] = second compound 0.0316 µM, first compound 0.00316 µM
# [6] = second compound 0.0316 µM, first compound 0.01 µM
# [7] = second compound 0.0316 µM, first compound 0.0316 µM
# [8] = second compound 0.0316 µM, first compound 0.1 µM
# [9] = second compound 0.0316 µM, first compound 0.316 µM
# [10] = second compound 0.0316 µM, first compound 1 µM
# [11] = second compound 0.1 µM, first compound 0.00316 µM
# [12] = second compound 0.1 µM, first compound 0.01 µM
# [13] = second compound 0.1 µM, first compound 0.0316 µM
# [14] = second compound 0.1 µM, first compound 0.1 µM
# [15] = second compound 0.1 µM, first compound 0.316 µM
# [16] = second compound 0.1 µM, first compound 1 µM
# [17] = second compound 0.316 µM, first compound 0.00316 µM
# [18] = second compound 0.316 µM, first compound 0.01 µM
# [19] = second compound 0.316 µM, first compound 0.0316 µM
# [20] = second compound 0.316 µM, first compound 0.1 µM
# [21] = second compound 0.316 µM, first compound 0.316 µM
# [22] = second compound 0.316 µM, first compound 1 µM
# [23] = second compound 1 µM, first compound 0.00316 µM
# [24] = second compound 1 µM, first compound 0.01 µM
# [25] = second compound 1 µM, first compound 0.0316 µM
# [26] = second compound 1 µM, first compound 0.1 µM
# [27] = second compound 1 µM, first compound 0.316 µM
# [28] = second compound 1 µM, first compound 1 µM
# 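Also: spheroids exposed to the agents for 7 days before readout.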
# 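For viability, T/C in this document: luminescence viability as percent of DMSO vehicle control wells.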
smiles,measurement,setting,value
CC1(O)CCCC1n1c(=O)c(C(F)F)cc2cnc(NC3CCN(S(C)(=O)=O)CC3)nc21 (stereo not drawn) + CCn1c(-c2cccnc2C(C)OC)c2c3cc(ccc31)N1CCOC(CC(NC(=O)C(C(C)C)N(C)C(=O)C3(F)CCN(C(=O)C#CC(C)(C)N(C)C)CC3)C(=O)N3CCCC(N3)C(=O)OCC(C)(C)C2)C1,IC50,"curve of first compound, second compound 0.000949 µM",> 10 µM
same,IC50,"curve of first compound, second compound 0.003 µM",6.21 µM
same,IC50,"curve of first compound, second compound 0.00949 µM",> 10 µM
same,IC50,"curve of first compound, second compound 0.03 µM",4.98 µM
same,IC50,"curve of first compound, second compound 0.0949 µM",> 10 µM
same,IC50,"curve of first compound, second compound 0.3 µM",> 10 µM
same,"viability, T/C","second compound 0.000949 µM, first compound 0.0316 µM",97.1%
same,"viability, T/C","second compound 0.000949 µM, first compound 0.1 µM",113%
same,"viability, T/C","second compound 0.000949 µM, first compound 0.316 µM",92.2%
same,"viability, T/C","second compound 0.000949 µM, first compound 1 µM",70%
same,"viability, T/C","second compound 0.000949 µM, first compound 3.16 µM",55%
same,"viability, T/C","second compound 0.000949 µM, first compound 10 µM",73.7%
same,"viability, T/C","second compound 0.003 µM, first compound 0.0316 µM",102%
same,"viability, T/C","second compound 0.003 µM, first compound 0.1 µM",92.1%
same,"viability, T/C","second compound 0.003 µM, first compound 0.316 µM",89.8%
same,"viability, T/C","second compound 0.003 µM, first compound 1 µM",72%
same,"viability, T/C","second compound 0.003 µM, first compound 3.16 µM",57.9%
same,"viability, T/C","second compound 0.003 µM, first compound 10 µM",44.6%
same,"viability, T/C","second compound 0.00949 µM, first compound 0.0316 µM",108%
same,"viability, T/C","second compound 0.00949 µM, first compound 0.1 µM",110%
same,"viability, T/C","second compound 0.00949 µM, first compound 0.316 µM",84%
same,"viability, T/C","second compound 0.00949 µM, first compound 1 µM",72.4%
same,"viability, T/C","second compound 0.00949 µM, first compound 3.16 µM",50.5%
same,"viability, T/C","second compound 0.00949 µM, first compound 10 µM",53.9%
same,"viability, T/C","second compound 0.03 µM, first compound 0.0316 µM",103%
same,"viability, T/C","second compound 0.03 µM, first compound 0.1 µM",97%
same,"viability, T/C","second compound 0.03 µM, first compound 0.316 µM",77.7%
same,"viability, T/C","second compound 0.03 µM, first compound 1 µM",63%
same,"viability, T/C","second compound 0.03 µM, first compound 3.16 µM",63.9%
same,"viability, T/C","second compound 0.03 µM, first compound 10 µM",38.9%
same,"viability, T/C","second compound 0.0949 µM, first compound 0.0316 µM",102%
same,"viability, T/C","second compound 0.0949 µM, first compound 0.1 µM",91%
same,"viability, T/C","second compound 0.0949 µM, first compound 0.316 µM",94.5%
same,"viability, T/C","second compound 0.0949 µM, first compound 1 µM",58.9%
same,"viability, T/C","second compound 0.0949 µM, first compound 3.16 µM",53.9%
same,"viability, T/C","second compound 0.0949 µM, first compound 10 µM",54.7%
same,"viability, T/C","second compound 0.3 µM, first compound 0.0316 µM",100%
same,"viability, T/C","second compound 0.3 µM, first compound 0.1 µM",87.4%
same,"viability, T/C","second compound 0.3 µM, first compound 0.316 µM",87.7%
same,"viability, T/C","second compound 0.3 µM, first compound 1 µM",66%
same,"viability, T/C","second compound 0.3 µM, first compound 3.16 µM",56.9%
same,"viability, T/C","second compound 0.3 µM, first compound 10 µM",51.4%
Nc1ccn(C2OC(CO)C(O)C2(F)F)c(=O)n1 (stereo not drawn) + C#Cc1c(F)ccc2cc(O)cc(-c3ncc4c(N5CC6CCC(C5)N6)nc(OCC56CCCN5CC(F)C6)nc4c3F)c12,IC50,[1],0.17 µM
same,IC50,[2],0.164 µM
same,IC50,[3],0.118 µM
same,IC50,[4],0.0744 µM
same,IC50,"curve of first compound, second compound 3.16 µM",0.0576 µM
same,IC50,"curve of first compound, second compound 10 µM",< 0.00316 µM
same,"viability, T/C",[5],101%
same,"viability, T/C",[6],104%
same,"viability, T/C",[7],81%
same,"viability, T/C",[8],72.6%
same,"viability, T/C",[9],20.5%
same,"viability, T/C",[10],26.8%
same,"viability, T/C",[11],104%
same,"viability, T/C",[12],97.1%
same,"viability, T/C",[13],85.5%
same,"viability, T/C",[14],72.6%
same,"viability, T/C",[15],15.2%
same,"viability, T/C",[16],24.4%
same,"viability, T/C",[17],92.5%
same,"viability, T/C",[18],92.4%
same,"viability, T/C",[19],84.1%
same,"viability, T/C",[20],56.4%
same,"viability, T/C",[21],16.5%
same,"viability, T/C",[22],17.5%
same,"viability, T/C",[23],76.9%
same,"viability, T/C",[24],79.5%
same,"viability, T/C",[25],66.8%
same,"viability, T/C",[26],45.5%
same,"viability, T/C",[27],13.8%
same,"viability, T/C",[28],17.5%
same,"viability, T/C","second compound 3.16 µM, first compound 0.00316 µM",61.1%
same,"viability, T/C","second compound 3.16 µM, first compound 0.01 µM",62.6%
same,"viability, T/C","second compound 3.16 µM, first compound 0.0316 µM",61.3%
same,"viability, T/C","second compound 3.16 µM, first compound 0.1 µM",39.9%
same,"viability, T/C","second compound 3.16 µM, first compound 0.316 µM",14.8%
same,"viability, T/C","second compound 3.16 µM, first compound 1 µM",12.8%
same,"viability, T/C","second compound 10 µM, first compound 0.00316 µM",54.7%
same,"viability, T/C","second compound 10 µM, first compound 0.01 µM",45.1%
same,"viability, T/C","second compound 10 µM, first compound 0.0316 µM",41.7%
same,"viability, T/C","second compound 10 µM, first compound 0.1 µM",15.1%
same,"viability, T/C","second compound 10 µM, first compound 0.316 µM",18.1%
same,"viability, T/C","second compound 10 µM, first compound 1 µM",16.2%
O=C(c1ccc(F)c(F)c1Nc1ccc(I)cc1F)N1CC(O)([C@@H]2CCCCN2)C1 + C=CC(=O)N1CCN(c2nc(OCC3CCCN3C)nc3c(F)c(-c4nc(N)cc(C)c4C(F)(F)F)c(Cl)cc23)C(C)C1,IC50,"curve of first compound, second compound 0.00316 µM",0.363 µM
same,IC50,"curve of first compound, second compound 0.01 µM",0.399 µM
same,IC50,[1],0.306 µM
same,IC50,[2],0.368 µM
same,IC50,[3],0.377 µM
same,IC50,[4],0.349 µM
same,"viability, T/C","second compound 0.00316 µM, first compound 0.00316 µM",94.4%
same,"viability, T/C","second compound 0.00316 µM, first compound 0.01 µM",111%
same,"viability, T/C","second compound 0.00316 µM, first compound 0.0316 µM",93.1%
same,"viability, T/C","second compound 0.00316 µM, first compound 0.1 µM",84.8%
same,"viability, T/C","second compound 0.00316 µM, first compound 0.316 µM",56.6%
same,"viability, T/C","second compound 0.00316 µM, first compound 1 µM",4.22%
same,"viability, T/C","second compound 0.01 µM, first compound 0.00316 µM",100%
same,"viability, T/C","second compound 0.01 µM, first compound 0.01 µM",95.3%
same,"viability, T/C","second compound 0.01 µM, first compound 0.0316 µM",97%
same,"viability, T/C","second compound 0.01 µM, first compound 0.1 µM",83.9%
same,"viability, T/C","second compound 0.01 µM, first compound 0.316 µM",61.4%
same,"viability, T/C","second compound 0.01 µM, first compound 1 µM",6.87%
same,"viability, T/C",[5],103%
same,"viability, T/C",[6],99.2%
same,"viability, T/C",[7],95.1%
same,"viability, T/C",[8],80.8%
same,"viability, T/C",[9],48.9%
same,"viability, T/C",[10],10.1%
same,"viability, T/C",[11],101%
same,"viability, T/C",[12],97.5%
same,"viability, T/C",[13],88.8%
same,"viability, T/C",[14],79.6%
same,"viability, T/C",[15],59.6%
same,"viability, T/C",[16],4.51%
same,"viability, T/C",[17],99.7%
same,"viability, T/C",[18],97.6%
same,"viability, T/C",[19],91.9%
same,"viability, T/C",[20],81.9%
same,"viability, T/C",[21],58.3%
same,"viability, T/C",[22],6.58%
same,"viability, T/C",[23],101%
same,"viability, T/C",[24],94.7%
same,"viability, T/C",[25],81.1%
same,"viability, T/C",[26],79.7%
same,"viability, T/C",[27],55.5%
same,"viability, T/C",[28],8.33%
CCn1c(-c2cc(N3CCN(C)CC3)cnc2C(C)OC)c2c3cc(ccc31)-c1csc(n1)CC(NC(=O)C1CC1C)C(=O)N1CCCC(N1)C(=O)OCC(C)(C)C2 (stereo not drawn),"viability, T/C",compound 0.000949 µM,99% [middle of 8 runs]
same,"viability, T/C",compound 0.003 µM,101% [middle of 8 runs]
same,"viability, T/C",compound 0.00949 µM,100% [middle of 8 runs]
same,"viability, T/C",compound 0.03 µM,99.5% [middle of 8 runs]
same,"viability, T/C",compound 0.0949 µM,82.8% [middle of 7 runs]
same,"viability, T/C",compound 0.3 µM,38.5% [middle of 8 runs]
same,IC50,"compound alone, run of 07/09/2024",223 nM [middle of 8 runs]
